Reference: US20060240026A1, “Preventing and/or remedy hematopoietic tumor” (GREEN PEPTIDE CO., LTD., priority 2003, published 2006)
Ends that are not written are not given here.

How the values were obtained:
[1] = Side effects and skin test, chronic lymphocytic leukemia patient; type: in vivo, human
Experimental: Three kinds of emulsions each of which contains each of these peptides respectively and an adjuvant were prepared according to the method described in Example 1, and vaccinated to the patient by injecting subcutaneously at different sites of the patient's lateral thigh. […] The skin test was conducted by injecting intradermally the solution of 50 μg of each peptide in physiological saline and determining immediate-type or delayed-type hypersensitivity reaction at 20 minutes or 24 hours after the injection.
Therefore, SART-293 (SEQ ID NO: 5) and SART-3109 (SEQ ID NO: 8) were used for vaccination. […] In the clinical trials of peptide vaccines in epithelial cancer patients, there has been observed a correlation between the survival rate of patients and the increased humoral immune responses against the peptides used in the vaccines. From these facts, it was believed that SART-293 (SEQ ID NO: 5) and SART-3109 (SEQ ID NO: 8) were effective in this patient.
Thus, there were very few side effects observed.

[2] = test system: PBMCs of HLA-A24+ patients with hematologic malignancies; assay: IFN-γ production by peptide-stimulated patient PBMCs in response to peptide-pulsed C1R-A24 cells; type: cell-based, human; set-up: peptide-specific IFN-γ production: unit not given here; conditions: for peptide-specific IFN-γ production: 10 μM peptide in vitro, vs peptide-pulsed C1R-A24, HIV-peptide background subtracted
Experimental: The induction of peptide-specific cytotoxic T lymphocytes from PBMCs of a patient with hematologic malignancy was conducted as reported preveously (Non-Patent Reference 5). The following peptides were used to induce cytotoxic T lymphocytes: p56^lck protein-derived peptides (Lck208 (SEQ ID NO: 1), Lck488 (SEQ ID NO: 2) and Lck486 (SEQ ID NO: 3)); SART-1-derived peptide (SART-1690 (SEQ ID NO: 4)); SART-2-derived peptides (SART-293 (SEQ ID NO: 5), SART-2161 (SEQ ID NO: 6) and SART-2899 (SEQ ID NO: 7)); SART-3-derived peptides (SART-3109 (SEQ ID NO: 8) and SART-3315 (SEQ ID NO: 9)); and ART-1-derived peptide (ART-1170 (SEQ ID NO: 10)). All of these peptides are the epithelial cancer-related antigen-derived peptides and have the ability to induce cytotoxic T lymphocytes from PBMCs of an epithelial cancer patient in an HLA-A24 dependent manner (Non-Patent References 3-6 and 12). A human immunodeficiency virus (HIV)-derived peptide (SEQ ID NO: 11) and Epstein-Barr virus (EBV)-derived peptide (SEQ ID NO: 12) were used respectively as a negative control peptide and positive control peptide both of which have an HLA-A24-binding motif. […] PBMCs were prepared from peripheral blood that was collected from a patient with hematologic malignancy using Ficoll-Conray density-gradient centrifugation. The expression of HLA-A24 molecules on PBMCs was determined using flow cytometry by a well known method (Non-Patent Reference 5). The induction of cytotoxic T lymphocytes from PBMCs was conducted as follows. […] The culture medium consisted of 45% RPMI-1640, 45% AIM-V (Invitrogen), 10% FCS, 100 U/ml of interleukin-2 (IL-2), and 0.1 mM MEM non-essential amino acid solution (Invitrogen). […] The background IFN-γ production in response to the HIV-derived peptide (SEQ ID NO: 11) was subtracted from the values given in the data. When the mean value of the IFN-γ produced from the peptide-stimulated PBMCs in response to a corresponding peptide was higher than that produced in response to the HIV peptide (SEQ ID NO: 11), it was judged that the precursor of a peptide-specific cytotoxic T lymphocyte was present in the PBMCs and that the peptide-specific cytotoxic T lymphocytes were induced by the peptide. PBMCs of ten cases of HLA-A24^+ patients with hematologic malignancies (two cases with CLL, one case with MCL, one case with NHL, one case with B-ALL, one case with MM, one case with MDS, two cases with ATL, and one case with T-ALL) were tested for the induction of cytotoxic T lymphocytes using peptides that were derived from p56^lck protein, SART-1, SART-2, SART-3 and ART-1. The peptides used were the peptides that induced peptide-specific tumor-reactive cytotoxic T lymphocytes from PBMCs of an HLA-A24^+ epithelial cancer patient, which are currently on clinical trials for use as vaccines for epithelial cancer patients. The PBMCs were stimulated with the peptide in vitro to measure the peptide-specific IFN-γ production.

[3] = test system: C1R-A24 cells pulsed with the peptides; assay: IFN-γ production of PBMCs of vaccinated chronic lymphocytic leukemia patient; type: in vivo, human; conditions: CLL patient No. 1, with the increasing number of peptide vaccination
Description: The patient (patient No. 1 in table 2) subjected to clinical trials was a HLA-A24^+ […] suffering from chronic lymphocytic leukemia with a stage A by Bernet's classification.
(§1) Two kinds of emulsions prepared using these peptides according to the methods described in Example 5 were vaccinated to the patient by injecting subcutaneously at different sites of the patient's lateral thigh.
After each vaccination, PBMCs derived from the patient were studied for the peptide-specific cytotoxic T lymphocyte induction by measuring the amount of IFN-γ production as an indicator against C1R-A24 cells pulsed with the peptides used (see Example 3).

[4] = test system: C1R-A24 cells pulsed with the peptides; assay: Cytotoxic activity of PBMCs of vaccinated chronic lymphocytic leukemia patient (51Cr-release); type: in vivo, human; conditions: CLL patient No. 1, PBMCs after vaccination, 51Cr-release test
Description: as §1

[5] = test system: HLA-A24+ hematologic malignant cell line (PEER, REH); assay: 51Cr-release test of peptide-stimulated PBMCs against HLA-A24+ malignant line; type: cell-based, human; conditions: peptide-stimulated patient PBMCs further cultured with IL-2; effector/target 3, 10 or 30; 6 h
Experimental: (§2) Then, the cytotoxicity against hematologic malignant cell lines was examined by a standard ^51Cr-release test (Non-Patent Reference 5). Specifically, the PBMCs obtained were used as an effector to mix with ^51Cr-labelled target cells (hereinafter referred to as targets) at an effector/target rate of 3, 10 or 30, and then incubated for six hours, followed by measuring the radioactivity of ^51Cr released in the supernatants. The results obtained were indicated as % lysis which was calculated by regarding a radioactivity as 100% when the targets were completely dissolved. The following targets were used: PEER, an HLA-A24^+ hematologic malignant cell line; HPB-MLT, an HLA-A24^− hematologic malignant cell line; and an HLA-A24^+ PHA blastoid T-cell.

[6] = test system: HLA-A24- hematologic malignant cell line (HPB-MLT); assay: 51Cr-release test of peptide-stimulated PBMCs against HLA-A24- malignant line; type: cell-based, human; conditions: peptide-stimulated patient PBMCs further cultured with IL-2; effector/target 3, 10 or 30; 6 h
Experimental: as §2

[7] = test system: HLA-A24+ PHA blastoid T-cell; assay: 51Cr-release test of peptide-stimulated PBMCs against normal cells; type: cell-based, human; conditions: peptide-stimulated patient PBMCs further cultured with IL-2; effector/target 3, 10 or 30; 6 h
Experimental: as §2

With VYDYNCHVDL [SART-3109] the delayed-type hypersensitivity reaction ([1]; CLL patient No. 1, after the third vaccination) was “delayed-type hypersensitivity reaction was observed”.

For “SART-293: SART-2-derived peptide; epithelial cancer-related antigen peptide (DYSARWNEI; Partial peptide of SART-2)”, the “peptide-specific IFN-γ production” value ([2]; PBMCs of patient #1 CLL) was 0, the “peptide-specific IFN-γ production” value ([2]; PBMCs of patient #2 CLL) was 440 and the “peptide-specific IFN-γ production” value ([2]; PBMCs of patient #3 MCL) was 9. For the same substance, the “peptide-specific IFN-γ production” value ([2]; PBMCs of patient #4 NHL) was 63, the “peptide-specific IFN-γ production” value ([2]; PBMCs of patient #5 B-ALL) was 20 and the “peptide-specific IFN-γ production” value ([2]; PBMCs of patient #6 MM) was 28. For the same substance, the “peptide-specific IFN-γ production” value ([2]; PBMCs of patient #7 MDS) was 0, the “peptide-specific IFN-γ production” value ([2]; PBMCs of patient #8 ATL) was 0 and the “peptide-specific IFN-γ production” value ([2]; PBMCs of patient #9 ATL) was 354. For the same substance, the “peptide-specific IFN-γ production” value ([2]; PBMCs of patient #10 T-ALL) was 192, the “Responding case/total (enhancement of IFN-γ production)” value ([2]; ten HLA-A24+ patients with hematologic malignancies) was 3/10 and the “IFN-γ production in response to C1R-A24 cells pulsed with the peptide” value [3] was “enhanced production of interferon (IFN)-γ”. For the same substance, the “cytotoxic activity against peptide-pulsed C1R-A24 cells versus cells pulsed with HIV-derived peptide” value [4] was “higher cytotoxic activity”.

In the case of SYTRLFLIL [SART-2899], the “cytotoxic activity (% lysis) against HLA-A24+ hematologic malignant line” value [5] is reported as “significant cytotoxic activity”, the “cytotoxic activity (% lysis) against HLA-A24- hematologic malignant line” value [6] is reported as “did not show cytotoxic activity” and the “cytotoxic activity (% lysis) against HLA-A24+ PHA blastoid T-cells” value [7] is reported as “did not show cytotoxic activity”.

With EYCLKFTKL [ART-1170] the “immediate hypersensitivity reaction in skin test” value ([1]; CLL patient No. 1, before vaccination) was “caused immediate hypersensitivity reaction”.
